Data: patent publication US7563774B2, “Combination of FBPase inhibitors and antidiabetic agents useful for the treatment of diabetes” (Metabasis Therapeutics, Inc., priority 2000, dated 2009)

Tests used:
[1] = test system: streptozotocin-induced diabetic rat; assay: Chronic combination treatment of a fatty acid oxidation inhibitor and an FBPase inhibitor in the streptozotocin-induced diabetic rat (Example JJ); type: in vivo; conditions: etomoxir 3-300 mg/kg s.c., Compound J 0.2% w/w food admixture, 2-6 weeks
Procedure: Male Sprague-Dawley rats (Charles Rivers Laboratories) weighing approximately 120 g at the beginning of the study are housed under standard vivarium conditions and fed standard chow (Purina 5001). Rats are rendered diabetic by injection of 55 mg/kg body weight of streptozotocin (STZ) in citrate buffer, pH 4.7. […] Drug treatment is continued for 2-6 weeks. Blood glucose levels are monitored at regular intervals during the treatment period. At the end of the study, rats are anesthetized and instrumented with jugular vein and carotid artery catheters. Hepatic glucose production is measured using a primed constant infusion of (^3H)-6-glucose. Blood samples are taken after two hours, and the specific activity of glucose measured by […]. Hepatic glucose production rater are calculated by standard methods.

[2] = test system: Db/db or ob/ob mice; assay: Acute combination treatment of a glucose-6-phosphatase inhibitor and an FBPase inhibitor in db/db or ob/ob mice (Example GG); type: in vivo, mouse; conditions: 0.5 to 300 mg/kg p.o.
Procedure: Db/db or ob/ob mice are purchased at 5 weeks of age from Jackson Laboratories (Bar Harbor, Me.). The mice are maintained under standard vivarium conditions (24-26° C., 12-hour light cycle, 12-hour dark cycle) and receive standard chow and water ad libitum. At more than 10 weeks of age, animals are divided into 4 groups (n=5 to 7/group). […] Food is either withheld or made available after treatment. Blood glucose levels in tail vein samples are measured by means of standard manual or automated methods.

[3] = test system: Zucker Diabetic Fatty rats; assay: Acute combination treatment of an insulin secretagogue and Compound J in the ZDF rat (Example X); type: in vivo
Procedure: Experimental Protocol: Zucker Diabetic Fatty rats (9.5 weeks of age) were fasted for 5 hours starting at 8 am. The animals were then divided into 4 treatments groups with statistically similar baseline blood glucose levels. Test compounds were administered by oral gavage. The treatments were as shown below:
One hour after saline or drug administration, all animals received a simulated meal in the form of an oral bolus of glucose (1 g/kg). Blood glucose was then monitored at regular time intervals for 3 hours. Test compounds were prepared as suspensions in 0.1% carboxymethylcellulose. Blood samples were obtained by nicking of a tail vein. Blood glucose was measured by means of a HemoCue glucose analyzer according to the manufacturer's instructions (HemoCue Inc., Mission Viejo, Calif.). Results are expressed as the mean ± standard error of the mean for all values.

[4] = glyburide 100 mg/kg, Compound J 300 mg/kg p.o.

CCOC(=O)[C@H](C)NP(=O)(N[C@@H](C)C(=O)OCC)c1ccc(-c2nc(N)sc2CC(C)C)o1 [Compound J, 2-Amino-5-isobutyl-4-{2-[5-(N,N′-bis((S)-1-ethoxycarbonyl)ethyl)phosphonamido]furanyl}thiazole] was tested, and the Blood Glucose [1] was “lowered significantly”, the blood glucose lowering [2] was “significantly lower blood glucose relative to control values” and the “blood glucose after oral glucose load (FIG. 1)” value [3, 4] was “lowering blood glucose to below baseline levels”. For the same compound, the “blood lactate levels (FIG. 2)” value [3, 4] was “increase in blood lactate levels”, the AUC glucose ([3]; initial 4 hours post drug, glyburide 100 mg/kg, Compound J 300 mg/kg p.o., oral glucose 1 g/kg) was 1121 ± 82 mg·h/dL and the maximally efficacious dose ([3]; pilot studies, ZDF rat) was 300 mg/kg.
